Columns and labels:
[1] = target: T1, saccharase/isomaltase enzyme complex (SI complex) (Sus scrofa, UniProt P56729); assay: Stability with respect to intestinal α-glucosidases: saccharase/isomaltase; assay type: in vitro ADME, pig; settings: 1% solution, pH 7.0, 0.7 U enzyme complex, 37° C., incubation time 120 min
T1 construct: are isolated from a pig intestine by the method of H. Heymann; from tissue; host or cells: pig intestine (mucosa of the small intestine)
Source text: (§1) The enzyme complexes saccharase/isomaltase and glucoamylase/maltase that are present on the mucosa in the small intestine in vivo serve to break down disaccharides like maltose and sucrose that reach the small intestine and also to break down maltooligosaccharides to monosaccharides to some degree, and as such these components are absorbed into the blood circulation via the intestinal wall. The enzyme complexes saccharase/isomaltase (SI complex) and glucoamylase/maltase (GM complex) are isolated from a pig intestine by the method of H. […] (solution 2 to solution 6), mixed and incubated at 37° C. The reaction is stopped after 2 h by heating to 95° C. for 15 min. The monosaccharides that have formed and the undegraded saccharides in the relative batches are quantitatively determined by HPAEC.

[2] = tested on: glucoamylase/maltase enzyme complex (GM complex); assay: Stability with respect to intestinal α-glucosidases: glucoamylase/maltase; assay type: in vitro ADME, pig; settings: 1% solution, pH 7.0, 0.7 U enzyme complex, 37° C., incubation time 120 min
Source text: as §1

[3] = Stability in stomach: hydrolysis rate at pH 2.0, 37° C.; assay type: physicochemical; settings: 1% solution, 10 mM hydrochloric acid (pH 2.0)
Protocol: The stability of a substance in the gastric passage can be simulated by determining the hydrolysis rate at pH 2.0. Sucrose and 1-kestose are used as controls. […] Samples are taken from the reaction batch after […], 120 and 180 min and are analyzed by basic anion exchange chromatography, HPAEC.

T1 sequence (P56729 with tags, fused parts or gaps): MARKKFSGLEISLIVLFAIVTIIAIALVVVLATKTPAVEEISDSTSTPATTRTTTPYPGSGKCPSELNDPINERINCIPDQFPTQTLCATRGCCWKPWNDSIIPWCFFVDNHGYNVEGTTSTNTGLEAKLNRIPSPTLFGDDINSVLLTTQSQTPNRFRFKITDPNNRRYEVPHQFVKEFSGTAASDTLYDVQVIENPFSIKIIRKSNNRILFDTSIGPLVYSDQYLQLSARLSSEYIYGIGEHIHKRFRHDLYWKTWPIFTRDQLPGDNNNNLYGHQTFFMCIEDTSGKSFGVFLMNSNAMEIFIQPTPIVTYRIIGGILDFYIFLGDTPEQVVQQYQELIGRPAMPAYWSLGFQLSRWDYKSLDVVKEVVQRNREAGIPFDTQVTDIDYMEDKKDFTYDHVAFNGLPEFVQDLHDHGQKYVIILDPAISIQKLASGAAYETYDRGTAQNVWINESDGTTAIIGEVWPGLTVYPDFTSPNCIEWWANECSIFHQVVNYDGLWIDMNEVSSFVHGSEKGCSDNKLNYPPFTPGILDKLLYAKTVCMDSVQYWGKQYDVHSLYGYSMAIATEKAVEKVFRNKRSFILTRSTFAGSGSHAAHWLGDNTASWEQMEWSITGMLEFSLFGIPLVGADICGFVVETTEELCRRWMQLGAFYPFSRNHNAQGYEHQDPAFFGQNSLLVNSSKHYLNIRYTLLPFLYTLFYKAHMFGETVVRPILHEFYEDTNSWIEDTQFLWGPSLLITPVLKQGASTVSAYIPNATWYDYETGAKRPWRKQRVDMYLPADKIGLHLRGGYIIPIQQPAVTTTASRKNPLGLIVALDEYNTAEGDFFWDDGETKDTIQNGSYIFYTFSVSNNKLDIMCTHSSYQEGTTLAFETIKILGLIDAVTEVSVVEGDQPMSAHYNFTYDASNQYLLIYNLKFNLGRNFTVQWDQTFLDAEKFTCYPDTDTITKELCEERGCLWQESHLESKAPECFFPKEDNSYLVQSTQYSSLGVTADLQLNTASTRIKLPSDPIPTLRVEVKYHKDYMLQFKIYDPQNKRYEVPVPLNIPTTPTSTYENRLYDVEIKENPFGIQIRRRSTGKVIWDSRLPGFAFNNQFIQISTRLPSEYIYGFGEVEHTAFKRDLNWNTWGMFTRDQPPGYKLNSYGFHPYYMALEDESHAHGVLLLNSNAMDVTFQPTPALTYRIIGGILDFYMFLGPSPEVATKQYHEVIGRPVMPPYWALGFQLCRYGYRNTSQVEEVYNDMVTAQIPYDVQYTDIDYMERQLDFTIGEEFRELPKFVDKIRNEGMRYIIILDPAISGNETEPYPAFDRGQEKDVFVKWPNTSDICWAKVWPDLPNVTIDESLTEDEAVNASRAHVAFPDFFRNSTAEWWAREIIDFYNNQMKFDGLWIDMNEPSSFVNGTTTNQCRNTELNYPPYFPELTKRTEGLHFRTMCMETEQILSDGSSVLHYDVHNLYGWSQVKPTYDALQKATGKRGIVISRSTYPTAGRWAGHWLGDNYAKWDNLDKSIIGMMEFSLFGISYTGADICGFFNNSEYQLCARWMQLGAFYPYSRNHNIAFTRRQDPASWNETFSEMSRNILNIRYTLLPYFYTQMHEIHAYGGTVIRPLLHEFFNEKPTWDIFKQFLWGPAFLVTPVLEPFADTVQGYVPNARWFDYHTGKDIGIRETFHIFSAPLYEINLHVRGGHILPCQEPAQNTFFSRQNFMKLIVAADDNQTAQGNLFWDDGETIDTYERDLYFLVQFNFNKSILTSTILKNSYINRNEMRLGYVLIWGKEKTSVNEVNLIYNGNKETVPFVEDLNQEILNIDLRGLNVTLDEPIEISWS

Row | Compound | Hydrolysis rate (%), incubation with Saccharase/Isomaltase [1] [%] | Hydrolysis rate (%), incubation with Glucoamylase/Maltase [2] [%] | Hydrolysis rate (%) ([3]; incubation time 0 min) | Hydrolysis rate (%) ([3]; incubation time 60 min) | Hydrolysis rate (%) ([3]; incubation time 120 min) | Hydrolysis rate (%) ([3]; incubation time 180 min)
1 | OC[C@H]1O[C@H](O[C@H]2[C@H](O)[C@@H](O)C(O)O[C@@H]2CO)[C@H](O)[C@@H](O)[C@@H]1O (mixture of isomers) [Maltose] | 95 | 96 | – | – | – | –
2 | OC[C@H]1O[C@@](CO)(OC[C@@]2(O[C@H]3O[C@H](CO)[C@@H](O)[C@H](O)[C@H]3O)O[C@H](CO)[C@@H](O)[C@@H]2O)[C@@H](O)[C@@H]1O [Example 1-Kestose, 1-Kestose] | – | – | 0 | 11 | 25 | 36
3 | OC[C@H]1O[C@@](CO)(O[C@H]2O[C@H](CO)[C@@H](O)[C@H](O)[C@H]2O)[C@@H](O)[C@@H]1O [Sucrose] | 98 | – | 0 | 2 | 5 | 8

Reference: US20050238777A1, “Condensed palatinose and method for producing the same” (priority 2002, published 2005)
